Measurements from patent publication US20060069110A1, “Substituted heterocyclic compounds and methods of use” (priority 2004, published 2006).

Tested on: THP1 cells (LPS induced TNF release)
Test: Lipopolysaccharide-Activated THP1 Cell TNF Production Assay
Type: cell-based
Settings: Homo sapiens, THP-1; THP1 cells, bacterial LPS, secreted TNF-α after 3 h at 37° C.; read-out: IC50 values in the THP1 cell assay (LPS induced TNF release)
Procedure, shortened: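 THP1 cells at 1E6/mL were treated with 3-fold serial compound dilutions and LPS (1 μg/mL stock) for 3 h at 37 °C. Secreted TNF-α was quantified by electrochemiluminescent sandwich immunoassay. Percent of DMSO control versus concentration was fitted to a 4-parameter equation.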

IC50, ≤ 20 µM:
CN(c1cccc(-c2cccc(Cl)c2)n1)c1ccnc(NCCc2ccccc2)n1 [Example 135, N^4-(6-(3-chlorophenyl)pyridin-2-yl)-N^4-methyl-N^2-phenethylpyrimidine-2,4-diamine]
CN(c1cccc(-c2ccccc2Cl)n1)c1ccnc(NCCc2ccccc2)n1 [Example 136, N^4-(6-(2-Chlorophenyl)pyridin-2-yl)-N^4-methyl-N^2-phenethylpyrimidine-2,4-diamine]
Cc1ccc(-c2cccc(N(C)c3ccnc(NCCc4ccccc4)n3)n2)cc1 [Example 137, N^4-Methyl-N^2-phenethyl-N^4-(6-p-tolylpyridin-2-yl)-pyrimidine-2,4-diamine]
Cc1cccc(-c2cccc(N(C)c3ccnc(NCCc4ccccc4)n3)n2)c1 [Example 138, N^4-Methyl-N^2-phenethyl-N^4-(6-m-tolylpyridin-2-yl)-pyrimidine-2,4-diamine]
Cc1ccccc1-c1cccc(N(C)c2ccnc(NCCc3ccccc3)n2)n1 [Example 139, N^4-Methyl-N^2-phenethyl-N^4-(6-o-tolylpyridin-2-yl)-pyrimidine-2,4-diamine]
COc1ccc(-c2cccc(N(C)c3ccnc(NCCc4ccccc4)n3)n2)cc1 [Example 140, N^4-(6-(4-Methoxyphenyl)pyridin-2-yl)-N^4-methyl-N^2-phenethylpyrimidine-2,4-diamine]
COc1cccc(-c2cccc(N(C)c3ccnc(NCCc4ccccc4)n3)n2)c1 [Example 141, N^4-(6-(3-Methoxyphenyl)pyridin-2-yl)-N^4-methyl-N^2-phenethylpyrimidine-2,4-diamine]
COc1ccccc1-c1cccc(N(C)c2ccnc(NCCc3ccccc3)n2)n1 [Example 142, N^4-(6-(2-Methoxyphenyl)pyridin-2-yl)-N^4-methyl-N^2-phenethylpyrimidine-2,4-diamine]
CN(c1cccc(-c2cc(F)cc(F)c2)n1)c1ccnc(NCCc2ccccc2)n1 [Example 143, N^4-(6-(3,5-Difluorophenyl)pyridin-2-yl)-N^4-methyl-N^2-phenethylpyrimidine-2,4-diamine]
CN(c1cccc(-c2ccc(F)c(F)c2)n1)c1ccnc(NCCc2ccccc2)n1 [Example 144, N^4-(6-(3,4-Difluorophenyl)pyridin-2-yl)-N^4-methyl-N^2-phenethylpyrimidine-2,4-diamine]
CN(c1cccc(-c2cccc(F)c2F)n1)c1ccnc(NCCc2ccccc2)n1 [Example 145, N^4-(6-(2,3-Difluorophenyl)pyridin-2-yl)-N^4-methyl-N^2-phenethylpyrimidine-2,4-diamine]
CN(c1cccc(-c2ccoc2)n1)c1ccnc(NCCc2ccccc2)n1 [Example 146, N^4-(6-(Furan-3-yl)pyridin-2-yl)-N^4-methyl-N^2-phenethylpyrimidine-2,4-diamine]
CN(c1cccc(-c2ccsc2)n1)c1ccnc(NCCc2ccccc2)n1 [Example 147]
CN(c1cccc(C2=CCCCC2)n1)c1ccnc(NCCc2ccccc2)n1 [Example 148, N^4-(6-cyclohexenylpyridin-2-yl)-N^4-methyl-N^2-phenethylpyrimidine-2,4-diamine]
CN(c1cccc(-c2ccco2)n1)c1ccnc(NCCc2ccccc2)n1 [Example 149, N^4-(6-(Furan-2-yl)pyridin-2-yl)-N^4-methyl-N^2-phenethylpyrimidine-2,4-diamine]
CN(c1cccc(-c2cccs2)n1)c1ccnc(NCCc2ccccc2)n1 [Example 150, N^4-Methyl-N^2-phenethyl-N^4-(6-(thiophen-2-yl)pyridin-2-yl)pyrimidine-2,4-diamine]
CN(c1cccc(Cc2ccccc2)n1)c1ccnc(NCCc2ccccc2)n1 [Example 151, N^4-(6-Benzylpyridin-2-yl)-N^4-methyl-N^2-phenethylpyrimidine-2,4-diamine]
CN(c1cccc(-c2ccccc2)n1)c1ccnc(N[C@H]2CC[C@H](N)CC2)n1 [Example 153, N^2-((1s,4s)-4-aminocyclohexyl)-N^4-methyl-N^4-(6-phenylpyridin-2-yl)pyrimidine-2,4-diamine]
CC(Cc1cccc(CO)c1)Nc1nccc(N(C)c2cccc(-c3cccc(F)c3)n2)n1 (centres unmarked) [Example 156, (3-(2-(4-((6-(3-Fluorophenyl)pyridin-2-yl)(methyl)amino)pyrimidin-2-ylamino)propyl)phenyl)methanol]
CC(Cc1cccc(CN)c1)Nc1nccc(N(C)c2cccc(-c3cccc(F)c3)n2)n1 (centres unmarked) [Example 157, N^2-(1-(3-(Aminomethyl)phenyl)propan-2-yl)-N^4-(6-(3-fluorophenyl)pyridin-2-yl)-N^4-methylpyrimidine-2,4-diamine]
Cn1c(Nc2ccnc(NCCc3ccccc3Cl)n2)cc(-c2ccccc2)cc1=O [Example 160, 6-(2-(2-Chlorophenethylamino)pyrimidin-4-ylamino)-1-methyl-4-phenylpyridin-2(1H)-one]
CN(c1ccnc(NC(C)(C)CNC(=O)OC(C)(C)C)n1)c1cc(-c2ccccc2)cc(=O)n1C [Example 161, tert-Butyl 2-methyl-2-(4-(methyl(1-methyl-6-oxo-4-phenyl-1,6-dihydropyridin-2-yl)amino)pyrimidin-2-ylamino)propylcarbamate]
CN(c1ccnc(NC2CCN(C(=O)OC(C)(C)C)CC2)n1)c1cc(-c2ccccc2)cc(=O)n1C [Example 162, tert-Butyl 4-(4-(methyl(1-2-yl)amino)pyrimidin-2-ylamino)piperidine-1-carboxylate]
CC(Cc1cccc(CO)c1)Nc1nccc(N(C)c2cc(Cl)nc(-c3ccccc3)c2)n1 (centres unmarked) [Example 163, (3-(2-(4-((2-Chloro-6-phenylpyridin-4-yl)(methyl)amino)pyrimidin-2-ylamino)-propyl)phenyl)methanol]
CC(Cc1cccc(CN)c1)Nc1nccc(N(C)c2cc(Cl)nc(-c3ccccc3)c2)n1 (centres unmarked) [Example 164, N^2-(1-(3-(Aminomethyl)phenyl)propan-2-yl)-N^4-(2-chloro-6-phenylpyridin-4-yl)-N4-methylpyrimidine-2,4-diamine]
CN(c1c[nH]c(=O)c(-c2ccccc2)c1)c1ccnc(NCCc2ccccc2)n1 [Example 166, 5-(Methyl(2-(phenethylamino)pyrimidin-4-yl)amino)-3-phenylpyridin-2(1H)-one]
CC(=O)N1CCC(Nc2nccc(N(C)c3c[nH]c(=O)c(-c4ccccc4)c3)n2)CC1 [Example 167, 5-((2-(1-Acetylpiperidin-4-ylamino)pyrimidin-4-yl)(methyl)amino)-3-phenyl-pyridin-2(1H)-one]
C[C@@H](Cc1cccc(CN)c1)Nc1nccc(N(C)c2c[nH]c(=O)c(-c3ccccc3)c2)n1 [Example 168, (S)-5-((2-(1-(3-(Aminomethyl)phenyl)propan-2-ylamino)pyrimidin-4-yl)(methyl)-amino)-3-phenylpyridin-2(1H)-one]
C[C@@H](Cc1cccc(CN)c1)Nc1nccc(N(C)c2c[nH]c(=O)c(-c3ccccc3F)c2)n1 [Example 169]
C[C@H](N)c1cccc(C[C@H](C)Nc2nccc(N(C)c3c[nH]c(=O)c(-c4ccccc4)c3)n2)c1 [Example 170, 5-((2-((S)-1-(3-((S)-1-Aminoethyl)phenyl)propan-2-ylamino)pyrimidin-4-yl)-(methyl)amino)-3-phenylpyridin-2(1H)-one]
CC(Cc1cccc(CN)c1)Nc1nccc(N(C)c2c[nH]c(=O)c(-c3ccccc3)c2)n1 (centres unmarked) [Example 171, 5-((2-(1-(3-(Aminomethyl)phenyl)propan-2-ylamino)pyrimidin-4-yl)(methyl)-amino)-3-phenylpyridin-2(1H)-one]
COc1ncc(N(C)c2ccnc(NCCc3ccccc3)n2)cc1-c1ccccc1 [Example 172, N^4-(6-Methoxy-5-phenylpyridin-3-yl)-N^4-methyl-N^2-phenethylpyrimidine-2,4-diamine]
CN(c1cc(-c2ccccc2)c(=O)n(C)c1)c1ccnc(NC2CCN(C(=O)OC(C)(C)C)CC2)n1 [Example 173, tert-Butyl 4-(4-(Methyl(1-methyl-6-oxo-5-phenyl-1,6-dihydropyridin-3-yl)amino)pyrimidin-2-ylamino)piperidine-1-carboxylate]
CN(c1cc(-c2ccccc2)c(=O)n(C)c1)c1ccnc(NC2CCNCC2)n1 [Example 174, 1-Methyl-5-(methyl(2-(piperidin-4-ylamino)pyrimidin-4-yl)amino)-3-phenylpyridin-2(1H)-one]
CC(=O)N1CCC(Nc2nccc(N(C)c3cc(-c4ccccc4)c(=O)n(C)c3)n2)CC1 [Example 175, 5-((2-(1-Acetylpiperidin-4-ylamino)pyrimidin-4-yl)(methyl)amino)-1-methyl-3-phenylpyridin-2(1H)-one]
CN(c1cc(-c2ccccc2)c(=O)n(C)c1)c1ccnc(NCCc2ccccc2)n1 [Example 176, 1-Methyl-5-(methyl(2-(phenethylamino)pyrimidin-4-yl)amino)-3-phenylpyridin-2(1H)-one]
CC(Cc1ccc(F)c(CO)c1)Nc1nccc(N(C)c2cc(-c3ccccc3)c(=O)n(C)c2)n1 (centres unmarked) [Example 177, 5-((2-(1-(4-Fluoro-3-(hydroxymethyl)phenyl)propan-2-ylamino)pyrimidin-4-yl)(methyl)amino)-1-methyl-3-phenylpyridin-2(1 H)-one]
C[C@@H](Cc1cccc(CN)c1)Nc1nccc(N(C)c2cc(-c3ccccc3)c(=O)n(C)c2)n1 [Example 178, (S)-5-((2-(1-(3-(Aminomethyl)phenyl)propan-2-ylamino)pyrimidin-4-yl)(methyl)-amino)-1-methyl-3-phenylpyridin-2(1H)-one]
